This is an account of results in patent publication US12435060B2, “Acylamino bridged heterocyclic compound, and composition and application thereof” (BEIJING SCITECH-MQ PHARMACEUTICALS LIMITED, priority 2019, dated 2025).

By IC50 is commonly meant the concentration at which inhibition is half-maximal.

In this assay the test system is HT29 cells. The assay can be described thus: Inhibition of cell necrosis (CCK8 method), induced programmed necrosis of HT29 cells. It counts as cell-based. Particulars: Homo sapiens, HT-29; rescue from necrosis induced by TNF-α 20 ng/mL, AT-406 1 μM, Z-VAD-FMK 20 μM; 16-20 hours; CCK-8, OD 450 nm. An outline of the steps:
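HT29 cells in McCOY's 5A with 10% FBS were pre-treated for 30 min with compound (9 fourfold steps, 25000 to 0.38 nM final, 0.25% DMSO). Necrosis was then induced with TNF-α 20 ng/mL, AT-406 1 μM and Z-VAD-FMK 20 μM for 16-20 h. Viability was read by CCK-8 OD450, normalized between uninduced and induced wells, and IC50 was curve-fitted.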
(In general: Tetrazolium assays rely on reduction of a dye to a coloured formazan, in cell work by metabolically active cells.)

Take `Cc1cc(F)cc(Cc2nnc(C(=O)Nc3cc(-c4cc(OCCCC(C)(C)O)ccc4C)ccn3)[nH]2)c1` [Example 207, 5-(3-fluoro-5-methylbenzyl)-N-(4-(5-((4-hydroxy-4-methylpentyl)oxy)-2-methylphenyl)pyridin-2-yl)-4H-1,2,4-triazole-3-carboxamide]: the 50% inhibitory concentration (IC50) was 100 to 1000 nM.
`Cc1cc(Cc2nnc(C(=O)Nc3cc(-c4cc(OCCCC(C)(C)O)ccc4C)ccn3)[nH]2)ccc1F` [Example 208, 5-(4-fluoro-3-methylbenzyl)-N-(4-(5-((4-hydroxy-4-methylpentyl)oxy)-2-methylphenyl)pyridin-2-yl)-4H-1,2,4-triazole-3-carboxamide] showed an IC50 of 100 to 1000 nM.
Next, `COc1cc(Cc2nnc(C(=O)Nc3cc(-c4cc(OCCCC(C)(C)O)ccc4C)ccn3)[nH]2)ccc1F` [Example 209, 5-(4-fluoro-3-methoxybenzyl)-N-(4-(5-((4-hydroxy-4-methylpentyl)oxy)-2-methylphenyl)pyridin-2-yl)-4H-1,2,4-triazole-3-carboxamide]: 100 to 1000 nM; `Cc1ccc(OCCCC(C)(C)O)cc1-c1ccnc(NC(=O)c2nnc(Cc3cccc(C(F)(F)F)c3F)[nH]2)c1` [Example 210, 5-(2-fluoro-3-trifluoromethylbenzyl)-N-(4-(5-((4-hydroxy-4-methylpentyl)oxy)-2-methylphenyl)pyridin-2-yl)-4H-1,2,4-triazole-3-carboxamide]: 100 to 1000 nM; `Cc1ccc(OCCCC(C)(C)O)cc1-c1ccnc(NC(=O)c2nnc(Cc3cc(C(F)(F)F)ccc3F)[nH]2)c1` [Example 211, 5-(2-fluoro-5-trifluoromethylbenzyl)-N-(4-(5-((4-hydroxy-4-methylpentyl)oxy)-2-methylphenyl)pyridin-2-yl)-4H-1,2,4-triazole-3-carboxamide]: 100 to 1000 nM.
The result for `Cc1ccc(OCCCC(C)(C)O)cc1-c1ccnc(NC(=O)c2nnc(Cc3ccc(F)c(C(F)(F)F)c3)[nH]2)c1` [Example 212, 5-(4-fluoro-3-trifluoromethylbenzyl)-N-(4-(5-((4-hydroxy-4-methylpentyl)oxy)-2-methylphenyl)pyridin-2-yl)-4H-1,2,4-triazole-3-carboxamide] reads 100 to 1000 nM; that for `Cc1ccc(OCCCC(C)(C)O)cc1-c1ccnc(NC(=O)c2nnc(Cc3cc(F)cc(C(F)(F)F)c3)[nH]2)c1` [Example 213, 5-(3-fluoro-5-trifluoromethylbenzyl)-N-(4-(5-((4-hydroxy-4-methylpentyl)oxy)-2-methylphenyl)pyridin-2-yl)-4H-1,2,4-triazole-3-carboxamide], 1000 to 10000 nM; that for `Cc1ccc(OCCCC(C)(C)O)cc1-c1ccnc(NC(=O)c2nnc(Cc3ccc(F)c(F)c3F)[nH]2)c1` [Example 214, 5-(2,3,4-trifluorobenzyl)-N-(4-(5-((4-hydroxy-4-methylpentyl)oxy)-2-methylphenyl)pyridin-2-yl)-4H-1,2,4-triazole-3-carboxamide], at most 100 nM.
Next, `Cc1ccc(OCCCC(C)(C)O)cc1-c1ccnc(NC(=O)c2nnc(Cc3cc(F)cc(F)c3F)[nH]2)c1` [Example 215, 5-(2,3,5-trifluorobenzyl)-N-(4-(5-((4-hydroxy-4-methylpentyl)oxy)-2-methylphenyl)pyridin-2-yl)-4H-1,2,4-triazole-3-carboxamide]: at most 100 nM; `Cc1ccc(OCCCC(C)(C)O)cc1-c1ccnc(NC(=O)c2nnc(Cc3c(F)ccc(F)c3F)[nH]2)c1` [Example 216, 5-(2,3,6-trifluorobenzyl)-N-(4-(5-((4-hydroxy-4-methylpentyl)oxy)-2-methylphenyl)pyridin-2-yl)-4H-1,2,4-triazole-3-carboxamide]: at most 100 nM.
Consider `Cc1ccc(OCCCC(C)(C)O)cc1-c1ccnc(NC(=O)c2nnc(Cc3cc(F)c(F)c(F)c3)[nH]2)c1` [Example 217, 5-(3,4,5-trifluorobenzyl)-N-(4-(5-((4-hydroxy-4-methylpentyl)oxy)-2-methylphenyl)pyridin-2-yl)-4H-1,2,4-triazole-3-carboxamide], for which the IC50 was 100 to 1000 nM.
